Data taken from patent US20210030022A1, “NOVEL USE OF SUBSTITUTED CHROMAN-6-OLS” (DSM IP ASSETS B.V., priority 2018, published 2021).

What was measured:
[1] = Oil Stability Index (OSI) in fish oil, Example 13; conditions: fish oil, Example 13, 0.5 and 2 mg/g
Protocol: The compounds of formulae (3) and (7) were used in both fish and algal oils to see their antioxidant effect in these oils. Antioxidant effect was determined using mainly the Oil Stability Index (OSI). Two concentration levels were used: 0.5 mg/g (low level) and 2 mg/g (high level), respectively, have been added to 5 g of oil and used in the Oxidative Stability Instrument operated at 80° C. with the continuous air flow rate at ˜40 psi. All samples were run in duplicate. The Protection Factors (PF) for each compound, as percentage, in oil were calculated as, [formula]

Solubility in fish oil = format: physicochemical
Protocol: The compounds of formulae (4), (6), (8) and (9) were evaluated primarily for their oxidative stability by the Oil Stability Index (OSI) measurements. Two different levels of these antioxidants (0.5 and 2 mg/g) were used in 5 g of natural fish oil (Product code: FG30TG) and used in the Oxidative Stability Instrument at 80° C. with the air flow rate of 40 psi. The solubility of different amounts and types of antioxidants used in OSI was checked before and after the application. […]

[2] = Oil Stability Index (OSI) in fish oil, Example 12; conditions: FG30TG fish oil
Protocol: The compounds of formulae (4), (6), (8) and (9) were evaluated primarily for their oxidative stability by the Oil Stability Index (OSI) measurements. Two different levels of these antioxidants (0.5 and 2 mg/g) were used in 5 g of natural fish oil (Product code: FG30TG) and used in the Oxidative Stability Instrument at 80° C. with the air flow rate of 40 psi. The solubility of different amounts and types of antioxidants used in OSI was checked before and after the application.
The compounds of formulae (6) and (9) (see Table 14 below), compound of formula (4) (see Table 15 below) and compound of formula (8) (see Table 16 below) were used at different times in the Oxidative Stability instruments under similar operational conditions used for fish oil evaluations. MNT and the oil without any antioxidants (“Blank”) were always used to compare. Also, the synergistic effect of only oil soluble compounds with ascorbyl palmitate was determined using the OSI values. The polymers generated at the end of the experiment were determined by LC (LC=liquid chromatography).
The Protection Factors (PF) for each compound in oil were calculated in percentage as: […]

[3] = Storage stability in fish oil (PV, p-AV, CD), Example 12; conditions: FG30TG, 2 mg/g
Protocol: Tables 25, 26 and 27 show the PV (peroxide value), p-AV (p-anisidine value) and CD (Conjugated dienoic acid %) of the fish oil samples stabilized with compounds of formulae (6), (8) and (9), respectively.
For the storage stability study oil soluble compounds were used in fish oil at 2 mg/g level only. […] There was no considerable variation in p-AV and CD (Tables 26-27) during the storage.

In the case of “6-Hydroxy-7-Methoxy-2,2-Dimethyl-Chroman-4-One [Compound of formula (10)]”, the “antioxidant activity (OSI) in fish oil compared with MNT” value [1] is reported as “comparable antioxidant activity to MNT”.

With `CC(C)CCCC(C)CCCC1(C)CCc2cc(O)ccc2O1` (stereo not shown) [Compound of formula (8), 2-(4,8-dimethylnonyl)-2-methyl-chroman-6-ol] the “Solubility in fish oil, 80° C.” value (Solubility in fish oil; 0.5 mg/g) was “soluble”, the “Solubility in fish oil, Room temp.” value (Solubility in fish oil; 0.5 mg/g) was “soluble” and the “Solubility in fish oil, 80° C.” value (Solubility in fish oil; 2.0 mg/g) was “soluble”. For the same compound, the “Solubility in fish oil, Room temp.” value (Solubility in fish oil; 2.0 mg/g) was “soluble”, the “OSI” value ([2]; Table 16, 80° C., 0.5 mg/g) was 5.48 h and the “OSI” value ([2]; Table 16, 80° C., 2 mg/g) was 5.96 h. The “Protection Factor (%)” value ([2]; Table 19, 0.5 mg/g) was 15.42%, the “Protection Factor (%)” value ([2]; Table 19, 2 mg/g) was 25.89% and the “OSI” value ([2]; Table 21, 2 mg/g + 0.5 mg/g of AP (ascorbyl palmitate)) was 7.03 h. For the same compound, the “OSI” value ([2]; Table 21, 2 mg/g, without AP) was 6.58 h, the “Protection Factor (%)” value ([2]; Table 23, 2 mg/g + 0.5 mg/g of AP) was 130% and the “Protection Factor (%)” value ([2]; Table 23, 2 mg/g, without AP) was 145%. The “CD (conjugated dienoic acid in %)” value ([3]; 4 days) was 0.6%, the “PV (peroxide value)” value ([3]; 4 days) was 1.6 and the “p-AV (p-anisidine value)” value ([3]; 4 days) was 10.3. The “CD (conjugated dienoic acid in %)” value ([3]; 6 days) was 0.6%, the “PV (peroxide value)” value ([3]; 6 days) was 1.8 and the “p-AV (p-anisidine value)” value ([3]; 6 days) was 9.8. The “CD (conjugated dienoic acid in %)” value ([3]; 8 days) was 0.2%, the “PV (peroxide value)” value ([3]; 8 days) was 3.1 and the “p-AV (p-anisidine value)” value ([3]; 8 days) was 10. The “CD (conjugated dienoic acid in %)” value ([3]; 11 days) was 0.7%, the “PV (peroxide value)” value ([3]; 11 days) was 3.7 and the “p-AV (p-anisidine value)” value ([3]; 11 days) was 10.4. The “CD (conjugated dienoic acid in %)” value ([3]; 13 days) was 0.7%, the “PV (peroxide value)” value ([3]; 13 days) was 8.7 and the “p-AV (p-anisidine value)” value ([3]; 13 days) was 10.6. For the same compound, the “CD (conjugated dienoic acid in %)” value ([3]; 15 days) was 0.8%, the “PV (peroxide value)” value ([3]; 17 days) was 11.5 and the “p-AV (p-anisidine value)” value ([3]; 17 days) was 11. For the same compound, the “CD (conjugated dienoic acid in %)” value ([3]; Initial) was 0.7%, the “PV (peroxide value)” value ([3]; Initial) was 0.9 and the “p-AV (p-anisidine value)” value ([3]; Initial) was 9.9.
